According to PubChem BioAssay AID318 (DTP/NCI, 2004):
“And” between values parts separate entries of the source, which are not always exact repeats. Identical values can stand only once. Toxic doses and inconclusive results are not listed. Starred links: 1 amine or outer side, 2 acyl side, 3 side chain; linkers in the order of their positions; H or OH if unused. Positions of bridges follow the written chain, without caps; N, C: chain ends. Non-standard residues stand in square brackets, D forms with d. Residues, ends and D or L forms follow the SMILES beside them. Chains are numbered I, II in the order given. Actinocin(9to1) = Cc1c2oc3c(C)ccc(C(=O)[*:1])c3nc-2c(C(=O)[*:2])c(N)c1=O; NMeV = CN[CH](C(=O)O)C(C)C; Aze = O=C(O)[CH]1CCN1; Sar = CNCC(=O)O

System: BDF1 mice, P815 leukemia ip, survival T/C
Assay: NCI In Vivo Anticancer Drug Screen. Data for tumor model P815 Mast Cell Leukemia (Ascitic) (intraperitoneal) in B6D2F1 (BDF1) mice
Conditions: higher = longer survival
Description: The antitumor activity of compounds was measured in mice bearing transplantable tumors. Survival or tumor size were measured and the results are expressed as the measurement made in the treated group (T) divided by the measurement made in the vehicle treated control group (C). The tumor model used in this assay is P815 Mast Cell Leukemia (Ascitic) (intraperitoneal) in B6D2F1 (BDF1) mice

[1] = endpoint: survival time, mean or median, dose: 25.0 mg/kg/injection, schedule: Q01DX010 (ip), vehicle: saline
[2] = endpoint: survival time, mean or median, dose: 62.5 mg/kg/injection, schedule: Q01DX015 (ip), vehicle: carboxymethylcellulose (CMC)
[3] = endpoint: survival time, mean or median, dose: 125.0 mg/kg/injection, schedule: Q01DX015 (ip), vehicle: carboxymethylcellulose (CMC)
[4] = endpoint: survival time, mean or median, dose: 250.0 mg/kg/injection, schedule: Q01DX015 (ip), vehicle: carboxymethylcellulose (CMC)
[5] = endpoint: survival time, mean or median, dose: 500.0 mg/kg/injection, schedule: Q01DX015 (ip), vehicle: carboxymethylcellulose (CMC)
[6] = endpoint: survival time, mean or median, dose: 10.0 mg/kg/injection, schedule: Q01DX010 (ip), vehicle: saline
[7] = endpoint: survival time, mean or median, dose: 20.0 mg/kg/injection, schedule: Q01DX010 (ip), vehicle: saline
[8] = endpoint: survival time, mean or median, dose: 40.0 mg/kg/injection, schedule: Q01DX010 (ip), vehicle: saline

[I][Hg][CH2]C1COC([CH2][Hg][I])CO1 (stereo not drawn)
T/C (endpoint: survival time, mean or median, dose: 3.13 mg/kg/injection, schedule: Q01DX010 (ip), vehicle: saline): 90 % of control
T/C (endpoint: survival time, mean or median, dose: 6.25 mg/kg/injection, schedule: Q01DX010 (ip), vehicle: saline): 90 % of control
T/C (endpoint: survival time, mean or median, dose: 12.5 mg/kg/injection, schedule: Q01DX010 (ip), vehicle: saline): 95 % of control
T/C [1]: 90 % of control

CCCCNc1ncnc2c1cnn2C
T/C (endpoint: survival time, mean or median, dose: 31.25 mg/kg/injection, schedule: Q01DX010 (ip), vehicle: saline): 95 % of control and 100 % of control
T/C (endpoint: survival time, mean or median, dose: 62.5 mg/kg/injection, schedule: Q01DX010 (ip), vehicle: saline): 108 % of control

O=C(Nc1cccc(C(=O)Nc2ccc(C3=NCCN3)cc2)c1)c1ccc(C2=NCCN2)cc1
T/C (endpoint: survival time, mean or median, dose: 54.0 mg/kg/injection, schedule: Q01DX010 (ip), vehicle: saline): 112 % of control

CC(Cl)CN(Cc1cc(O)c(CN(CC(C)Cl)CC(C)Cl)cc1O)CC(C)Cl (stereo not drawn)
T/C [2]: 114 % of control
T/C [3]: 99 % of control
T/C [4]: 122 % of control
T/C [5]: 124 % of control

O=C(Nc1ccc(C2=NCCN2)cc1)c1ccc(C(=O)Nc2ccc(C3=NCCN3)cc2)c(Cl)c1
T/C (endpoint: survival time, mean or median, dose: 1.5 mg/kg/injection, schedule: Q01DX015 (ip), vehicle: carboxymethylcellulose (CMC)): 109 % of control
T/C (endpoint: survival time, mean or median, dose: 6.0 mg/kg/injection, schedule: Q01DX015 (ip), vehicle: carboxymethylcellulose (CMC)): 182 % of control
T/C (endpoint: survival time, mean or median, dose: 9.0 mg/kg/injection, schedule: Q01DX015 (ip), vehicle: carboxymethylcellulose (CMC)): 176 % of control

NC(=O)c1[nH]nc(C2OC(CO)C(O)C2O)c1O (stereo not drawn)
T/C (endpoint: median survival time, dose: 1.56 mg/kg/injection, schedule: Q04DX003 (ip), vehicle: saline): 102 % of control
T/C (endpoint: median survival time, dose: 2.59 mg/kg/injection, schedule: Q04DX003 (ip), vehicle: saline): 104 % of control
T/C (endpoint: median survival time, dose: 4.32 mg/kg/injection, schedule: Q04DX003 (ip), vehicle: saline): 103 % of control
T/C (endpoint: median survival time, dose: 7.2 mg/kg/injection, schedule: Q04DX003 (ip), vehicle: saline): 121 % of control
T/C (endpoint: median survival time, dose: 12.0 mg/kg/injection, schedule: Q04DX003 (ip), vehicle: saline): 114 % of control
T/C (endpoint: median survival time, dose: 20.0 mg/kg/injection, schedule: Q04DX003 (ip), vehicle: saline): 104 % of control

COc1ccc2c(c1OC)C(=O)O[C@@H]2[C@H]1c2c(cc3c(c2OC)OCO3)CCN1C
T/C [2]: 101 % of control
T/C [3]: 95 % of control
T/C [4]: 96 % of control
T/C [5]: 93 % of control

CC1CCOS(=O)O1 (stereo not drawn)
T/C [6]: 100 % of control
T/C [7]: 100 % of control
T/C [8]: 100 % of control
T/C (endpoint: survival time, mean or median, dose: 80.0 mg/kg/injection, schedule: Q01DX010 (ip), vehicle: saline): 88 % of control

Cc1c2oc3c(C)ccc(C(=O)NC4C(=O)NC(C(C)C)C(=O)N5CCC5C(=O)N(C)CC(=O)N(C)C(C(C)C)C(=O)OC4C)c3nc-2c(C(=O)NC2C(=O)NC(C(C)C)C(=O)N3CCC3C(=O)N(C)CC(=O)N(C)C(C(C)C)C(=O)OC2C)c(N)c1=O (stereo not drawn) (I: TV[Aze][Sar][NMeV] / II: TV[Aze][Sar][NMeV]; ester I:1-I:C, II:1-II:C; linker I:N-II:N via Actinocin(9to1); configuration not given here)
T/C (endpoint: median survival time, dose: 270.0 micrograms/kg/injection, schedule: Q04DX003 (ip), vehicle: saline + alcohol): 118 % of control
T/C (endpoint: median survival time, dose: 450.0 micrograms/kg/injection, schedule: Q01DX001 (ip), vehicle: saline + alcohol): 118 % of control
T/C (endpoint: median survival time, dose: 450.0 micrograms/kg/injection, schedule: Q04DX003 (ip), vehicle: saline + alcohol): 113 % of control
T/C (endpoint: median survival time, dose: 750.0 micrograms/kg/injection, schedule: Q01DX001 (ip), vehicle: saline + alcohol): 121 % of control
T/C (endpoint: median survival time, dose: 750.0 micrograms/kg/injection, schedule: Q04DX003 (ip), vehicle: saline + alcohol): 97 % of control
T/C (endpoint: median survival time, dose: 1250.0 micrograms/kg/injection, schedule: Q01DX001 (ip), vehicle: saline + alcohol): 105 % of control
T/C (endpoint: median survival time, dose: 1250.0 micrograms/kg/injection, schedule: Q04DX003 (ip), vehicle: saline + alcohol): 92 % of control

Cc1cc(N(CCCl)CCCl)ccc1N=Nc1ccccc1C(=O)O
T/C (endpoint: survival time, mean or median, dose: 5.0 mg/kg/injection, schedule: Q01DX010 (ip), vehicle: saline): 105 % of control and 111 % of control
T/C [6]: 105 % of control and 111 % of control
T/C [7]: 111 % of control
T/C [8]: 88 % of control

O=C(Nc1ccc(C2=NCCN2)cc1)c1ccc(C(=O)Nc2ccc(C3=NCCN3)cc2)c(NC(=O)c2ccc(C(=O)Nc3cc(C(=O)Nc4ccc(C5=NCCN5)cc4)ccc3C(=O)Nc3ccc(C4=NCCN4)cc3)cc2)c1
T/C [1]: 95 % of control
T/C (endpoint: survival time, mean or median, dose: 50.0 mg/kg/injection, schedule: Q01DX010 (ip), vehicle: saline): 108 % of control
T/C (endpoint: survival time, mean or median, dose: 100.0 mg/kg/injection, schedule: Q01DX010 (ip), vehicle: saline): 95 % of control
T/C (endpoint: survival time, mean or median, dose: 200.0 mg/kg/injection, schedule: Q01DX010 (ip), vehicle: saline): 104 % of control
